Legend:
[1] = system: isolated perfused rat hearts; assay: Myocardial infarct size, TTC staining (Example 6); assay type: in vivo, Sprague-Dawley rats
Experimental: Infarct size estimation. Infarct size was measured using the triphenyl tetrazolium chloride (TTC) staining method. Malik et al. […] After two hours of reperfusion, 40 ml of 1% (w/v) solution of TTC in phosphate buffer was infused into the aortic cannula, and the heart samples were stored at −70° C. for subsequent analysis. Sections (0.8 mm) of frozen heart were fixed in 2% paraformaldehyde, placed between two cover slips and digitally imaged using a Microtek ScanMaker 600z (Microtek, USA). To quantitate the areas of infarct in pixels, a standard National Institutes of Health image program was used. The infarct size was quantified and expressed in pixels. At the end of each experiment the hearts were either subjected to TTC staining to determine infarct size or TUNEL staining to detect apoptosis.

[2] = system: IR rat heart; assay: Isolated working rat heart I/R: cardiac function, infarct size, apoptosis (Example 7); assay type: in vivo, Sprague-Dawley rats; conditions: resveratrol 5 mg/kg/day or Longevinex 100 mg/kg/day, 21 days
Experimental: Methods. Animals. […] Hattori et al., Am. J. Physiol. Heart. Circ. […] Mukherjee et al., Can. J. Pharmol. […] Isolated working heart preparation and assessment of cardiac function. After completing the feeding protocol, the animals were anesthetized with sodium pentobarbital (80 mg/kg, i.p.) (Abbott Laboratories, North Chicago, Ill., USA), and […] heparin sodium (500 IU/kg, i.v.) (Elkins-Sinn Inc., Cherry Hill, N.J., USA) was used as an anticoagulant. […] At the end of 10 min, baseline cardiac function like heart rate (HR, beats/min), aortic flow (AF, ml/min), coronary flow (CF, ml/min), left ventricular developed pressure (LVDP, mmHg) and first derivative of developed pressure (LVdp/dt, mmHg/sec) were recorded. […] Infarct size was measured according to the TTC method. […] To quantitate the areas of infarct in pixels, standard NIH image program was used. The infarct size was quantified and expressed in pixels. […] The fluorescence staining was viewed with a fluorescence microscope (AXIOPLAN2 IMAGING, Carl Zeiss Microimaging Inc., New York) at […] for green fluorescence of fluorescein and at 620 nm for red fluorescence of propidium iodide. The number of apoptotic cells was counted and expressed as a percent of total myocyte population.

[3] = system: reactive oxygen species; assay: Intracellular ROS by CM-H2DCFDA fluorescence in I/R heart; assay type: in vivo, rat; conditions: IR heart, FIG. 19
Experimental: The dye was injected intravenously, prior to induction of ischemia/reperfusion, and at the end of the experiments, the level of fluorescence was determined for the generation of ROS by measuring the fluorescent oxidation product CM-DCF in the cytosol, at an excitation wavelength of 480 nm and an emission wavelength of 520 nm.

[4] = system: biological processes (GO), cardiac tissue; assay: Biological processes (GO) affected by altered gene expression in cardiac tissue; assay type: in vivo, mice
[5] = system: miRNA expression, rat heart; assay: Global miRNA expression profiling (TLDA array) in ischemia-reperfused rat heart; conditions: for miR-21 expression, up: vs basal level control heart
Experimental: Global miRNA expression profiling in ischemia-reperfused rat heart. MicroRNA profiles were analyzed by TLDA array specific for 586 miRNA and five endogeneous control for rat.
Male Sprague-Dawley rats weighing between 250 and 300 g were fed ad libitum regular rat chow with free access to water until the start of the experimental procedure.
Micro RNA isolation and cDNA preparation. Total RNA from rat heart samples were isolated using Trizol reagent (Invitrogen) and further purified using mirVANA miRNA isolation kit (Ambion).
Profiling of miRNA expression. miRNA expression profiling were carried out using quantitative real-time PCR method by TaqManH Gene Signature Rodent Arrays on a 384 well micro fluidic card in 7900HT Realtime PCR machine (Applied Biosystem, Foster City) according to manufacturer's recommendation. Each miRNA were quantified by two specific amplicon primers and one specific probe. […] In addition, each array contains six control assays—five carefully selected candidate endogenous control assays, and one negative control assay.
Analyses of miRNA gene expression data. Realtime PCR data expressed as Ct values from array A and B were combined using R script (provided by GeneSpring Informatics Support Team) and processed using GeneSpringGX 11.0.2 software (Agilent Technologies, Santa Clara).

Q: With `Oc1ccc(/C=C/c2cc(O)cc(O)c2)cc1` [resveratrol, 3,4′,5-trihydroxy-trans-stilbene] as the molecule, how does the myocardial infarct size ([1]; 2.5 and 25 mg/kg) read?
A: significantly reduced

Q: What about the myocardial infarct size ([1]; above 50 mg/kg) of the same molecule?
A: significant increased

Q: And the “cardiac output function (aortic flow, coronary flow, LVDP, LVmax dp/dt)” value ([2]; 2 hour reperfusion)?
A: improved

Q: And the “myocardial infarct size and cardiomyocyte apoptosis” value ([2]; 2 h reperfusion)?
A: reduce

Q: What about the “intracellular ROS concentration compared to control” value [3] of the same molecule?
A: lowered

Q: And the “genes changed, GO: 0006596 Polyamine Biosynthetic Process” value ([4]; 5 genes in series)?
A: 2

Q: What about the “genes changed, GO: 0006625 Protein Targeting To Peroxisome” value ([4]; 5 genes in series) of the same molecule?
A: 2

Q: And the “genes changed, GO: 0006983 ER Overload Response” value ([4]; 5 genes in series)?
A: 2

Q: And the “genes changed, GO: 0006353 Transcription Termination” value ([4]; 6 genes in series)?
A: 2

Q: And the “genes changed, GO: 0045351 Interferon Type I Biosynthetic Process” value ([4]; 6 genes in series)?
A: 2

Q: What about the “genes changed, GO: 0001958 Endochondral Ossification” value ([4]; 8 genes in series) of the same molecule?
A: 2

Q: And the “genes changed, GO: 0007091 Mitotic Metaphase/Anaphase Transition” value ([4]; 8 genes in series)?
A: 2

Q: What about the “genes changed, GO: 0007143 Female Meiosis” value ([4]; 8 genes in series) of the same molecule?
A: 2

Q: And the “genes changed, GO: 0045577 Regulation Of B Cell Differentiation” value ([4]; 8 genes in series)?
A: 2

Q: What about the “genes changed, GO: 0046330 Positive Regulation Of JNK Cascade” value ([4]; 8 genes in series) of the same molecule?
A: 2

Q: What about the “genes changed, GO: 0006825 Copper Ion Transport” value ([4]; 9 genes in series) of the same molecule?
A: 3

Q: And the “genes changed, GO: 0033554 Cellular Response To Stress” value ([4]; 14 genes in series)?
A: 3

Q: And the “genes changed, GO: 0006888 ER To Golgi Vesicle-Mediated Transport” value ([4]; 16 genes in series)?
A: 3

Q: And the “genes changed, GO: 0006919 Caspase Activation” value ([4]; 16 genes in series)?
A: 3

Q: And the “genes changed, GO: 0000723 Telomere Maintenance” value ([4]; 17 genes in series)?
A: 3

Q: And the “genes changed, GO: 0030041 Actin Filament Polymerization” value ([4]; 17 genes in series)?
A: 3

Q: And the “genes changed, GO: 0043280 Positive Regulation Of Caspase Activity” value ([4]; 17 genes in series)?
A: 3

Q: And the “genes changed, GO: 0051016 Barbed-End Actin Filament Capping” value ([4]; 17 genes in series)?
A: 3

Q: What about the “genes changed, GO: 0008299 Isoprenoid Biosynthetic Process” value ([4]; 19 genes in series) of the same molecule?
A: 3

Q: And the “genes changed, GO: 0006446 Regulation Of Translational Initiation” value ([4]; 20 genes in series)?
A: 4

Q: What about the “genes changed, GO: 0043281 Regulation Of Caspase Activity” value ([4]; 27 genes in series) of the same molecule?
A: 5

Q: What about the “genes changed, GO: 0008064 Regulation Of Actin Polymerization And/Or Depolymerization” value ([4]; 30 genes in series) of the same molecule?
A: 4

Q: And the “genes changed, GO: 0050673 Epithelial Cell Proliferation” value ([4]; 30 genes in series)?
A: 4

Q: What about the “genes changed, GO: 0005977 Glycogen Metabolic Process” value ([4]; 31 genes in series) of the same molecule?
A: 7

Q: And the “genes changed, GO: 0030832 Regulation Of Actin Filament Length” value ([4]; 31 genes in series)?
A: 4

Q: What about the “genes changed, GO: 0051258 Protein Polymerization” value ([4]; 32 genes in series) of the same molecule?
A: 6

Q: What about the “genes changed, GO: 0006112 Energy Reserve Metabolic Process” value ([4]; 35 genes in series) of the same molecule?
A: 7

Q: And the “genes changed, GO: 0048193 Golgi Vesicle Transport” value ([4]; 37 genes in series)?
A: 6

Q: And the “genes changed, GO: 0008154 Actin Polymerization And/Or Depolymerization” value ([4]; 39 genes in series)?
A: 6

Q: And the “genes changed, GO: 0006413 Translational Initiation” value ([4]; 40 genes in series)?
A: 6

Q: What about the “genes changed, GO: 0043085 Positive Regulation Of Enzyme Activity” value ([4]; 40 genes in series) of the same molecule?
A: 5

Q: What about the “genes changed, GO: 0045454 Cell Redox Homeostasis” value ([4]; 40 genes in series) of the same molecule?
A: 6

Q: And the “genes changed, GO: 0005976 Polysaccharide Metabolic Process” value ([4]; 42 genes in series)?
A: 9

Q: And the “genes changed, GO: 0007018 Microtubule-Based Movement” value ([4]; 72 genes in series)?
A: 9

Q: And the “genes changed, GO: 0007178 Transmembrane Receptor Protein Serine/Threonine Kinase Signaling Pathway” value ([4]; 75 genes in series)?
A: 7

Q: What about the “genes changed, GO: 0006511 Ubiquitin-Dependent Protein Catabolic Process” value ([4]; 109 genes in series) of the same molecule?
A: 9

Q: And the “genes changed, GO: 0019941 Modification-Dependent Protein Catabolic Process” value ([4]; 111 genes in series)?
A: 9

Q: What about the “genes changed, GO: 0006457 Protein Folding” value ([4]; 124 genes in series) of the same molecule?
A: 13

Q: What about the “genes changed, GO: 0007017 Microtubule-Based Process” value ([4]; 155 genes in series) of the same molecule?
A: 12

Q: And the “genes changed, GO: 0006605 Protein Targeting” value ([4]; 161 genes in series)?
A: 12

Q: What about the “genes changed, GO: 0008380 RNA Splicing” value ([4]; 162 genes in series) of the same molecule?
A: 12

Q: What about the “genes changed, GO: 0006281 DNA Repair” value ([4]; 178 genes in series) of the same molecule?
A: 13

Q: What about the “genes changed, GO: 0006974 Response To DNA Damage Stimulus” value ([4]; 217 genes in series) of the same molecule?
A: 15

Q: What about the “genes changed, GO: 0044262 Cellular Carbohydrate Metabolic Process” value ([4]; 221 genes in series) of the same molecule?
A: 18

Q: And the “genes changed, GO: 0050790 Regulation Of Catalytic Activity” value ([4]; 241 genes in series)?
A: 21

Q: What about the “genes changed, GO: 0005975 Carbohydrate Metabolic Process” value ([4]; 316 genes in series) of the same molecule?
A: 21

Q: And the “genes changed, GO: 0007264 Small Gtpase Mediated Signal Transduction” value ([4]; 320 genes in series)?
A: 22

Q: What about the “genes changed, GO: 0006412 Translation” value ([4]; 338 genes in series) of the same molecule?
A: 25

Q: And the “genes changed, GO: 0006512 Ubiquitin Cycle” value ([4]; 356 genes in series)?
A: 27

Q: What about the “genes changed, GO: 0006886 Intracellular Protein Transport” value ([4]; 357 genes in series) of the same molecule?
A: 26

Q: And the “genes changed, GO: 0006091 Generation Of Precursor Metabolites And Energy” value ([4]; 390 genes in series)?
A: 24

Q: What about the “genes changed, GO: 0007010 Cytoskeleton Organization And Biogenesis” value ([4]; 403 genes in series) of the same molecule?
A: 26

Q: What about the “genes changed, GO: 0046907 Intracellular Transport” value ([4]; 523 genes in series) of the same molecule?
A: 43

Q: And the “genes changed, GO: 0009059 Macromolecule Biosynthetic Process” value ([4]; 525 genes in series)?
A: 35

Q: What about the “genes changed, GO: 0015031 Protein Transport” value ([4]; 581 genes in series) of the same molecule?
A: 38

Q: What about the “genes changed, GO: 0045184 Establishment Of Protein Localization” value ([4]; 610 genes in series) of the same molecule?
A: 38

Q: And the “genes changed, GO: 0051649 Establishment Of Cellular Localization” value ([4]; 653 genes in series)?
A: 45

Q: What about the “genes changed, GO: 0008104 Protein Localization” value ([4]; 663 genes in series) of the same molecule?
A: 38

Q: What about the “genes changed, GO: 0044249 Cellular Biosynthetic Process” value ([4]; 710 genes in series) of the same molecule?
A: 45

Q: What about the “genes changed, GO: 0006996 Organelle Organization And Biogenesis” value ([4]; 897 genes in series) of the same molecule?
A: 53

Q: What about the “genes changed, GO: 0009058 Biosynthetic Process” value ([4]; 979 genes in series) of the same molecule?
A: 60

Q: And the “share of the 220 biological processes with affected genes, calorie restricted mice” value ([4]; mouse cardiac tissue)?
A: failed to affect any genes in any of these processes

Q: What about the “principal component analysis of miRNA expression, IR treated samples” value ([5]; FIG. 15C) of the same molecule?
A: remarkably similar to BL vehicle sample

Q: And the “miR-21 expression, up” value ([5]; IR)?
A: 61.5 fold

Q: What about the “miR-21 expression, up” value ([5]; basal level) of the same molecule?
A: 391.4 fold

Q: What about the “miRNAs whose up or down regulation in IR control was reversed in the opposite direction” value ([5]; of the 25 miRNAs of Table 11, both treatments) of the same molecule?
A: 11

Source: patent US20140011889A1, “Resveratrol-Containing Compositions and Methods of Use for Cardiac-Related Diseases” (Resveratrol Partners, LLC, priority 2010, published 2014)
